Measured values published in patent publication US10479780B2, “Aminopyrazole derivatives” (Chugai Seiyaku Kabushiki Kaisha, priority 2015, dated 2019).

How the values were obtained:
Type in all cases: biochemical
[1] = target: T1, human Yes1 enzyme (Homo sapiens, UniProt P07947); assay: Yes1 enzyme inhibitory activity (time-resolved fluorometry, biotinylated peptide phosphorylation); conditions: read-out: YES_IC50
T1 construct: made in house
In short: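 Inhibition was expressed against a compound-free control to give IC50, using TR-FRET read-out (Eu-cryptate anti-pTyr antibody, streptavidin-XL665).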

[2] = target: T2, human Src enzyme (Homo sapiens, UniProt P12931); assay: Src enzyme inhibitory activity (time-resolved fluorometry, biotinylated peptide phosphorylation); conditions: read-out: SRC_IC50
T2 construct: purchased Carna Biosciences, Inc. 08-173
T2 sequence (P12931 whole entry): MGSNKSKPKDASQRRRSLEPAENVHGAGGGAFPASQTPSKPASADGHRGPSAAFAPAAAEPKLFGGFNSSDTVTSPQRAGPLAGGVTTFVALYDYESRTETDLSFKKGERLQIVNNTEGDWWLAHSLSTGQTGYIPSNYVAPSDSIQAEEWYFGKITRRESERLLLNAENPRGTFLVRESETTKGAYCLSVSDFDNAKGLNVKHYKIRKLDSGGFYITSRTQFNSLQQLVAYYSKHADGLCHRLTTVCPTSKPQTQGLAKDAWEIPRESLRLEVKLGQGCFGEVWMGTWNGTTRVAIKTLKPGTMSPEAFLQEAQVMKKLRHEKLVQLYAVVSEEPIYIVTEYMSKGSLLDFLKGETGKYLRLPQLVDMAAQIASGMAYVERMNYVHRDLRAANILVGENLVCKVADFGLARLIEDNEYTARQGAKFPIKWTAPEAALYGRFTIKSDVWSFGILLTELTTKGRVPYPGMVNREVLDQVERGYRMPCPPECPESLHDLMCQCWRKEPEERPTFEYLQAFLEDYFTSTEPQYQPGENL
In short: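 Compounds were tested for blocking tyrosine phosphorylation of a biotinylated peptide substrate by recombinant human Src. Phosphorylated product was quantified by time-resolved fluorometry using europium cryptate and XL665 conjugates, and IC50 was calculated against the compound-free control.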

[3] = target: T3, human Lck enzyme (Homo sapiens, UniProt P06239); assay: Lck enzyme inhibitory activity (time-resolved fluorometry, biotinylated peptide phosphorylation); conditions: read-out: LCK_IC50
T3 construct: purchased Carna Biosciences, Inc. 08-170
T3 sequence (P06239 whole entry): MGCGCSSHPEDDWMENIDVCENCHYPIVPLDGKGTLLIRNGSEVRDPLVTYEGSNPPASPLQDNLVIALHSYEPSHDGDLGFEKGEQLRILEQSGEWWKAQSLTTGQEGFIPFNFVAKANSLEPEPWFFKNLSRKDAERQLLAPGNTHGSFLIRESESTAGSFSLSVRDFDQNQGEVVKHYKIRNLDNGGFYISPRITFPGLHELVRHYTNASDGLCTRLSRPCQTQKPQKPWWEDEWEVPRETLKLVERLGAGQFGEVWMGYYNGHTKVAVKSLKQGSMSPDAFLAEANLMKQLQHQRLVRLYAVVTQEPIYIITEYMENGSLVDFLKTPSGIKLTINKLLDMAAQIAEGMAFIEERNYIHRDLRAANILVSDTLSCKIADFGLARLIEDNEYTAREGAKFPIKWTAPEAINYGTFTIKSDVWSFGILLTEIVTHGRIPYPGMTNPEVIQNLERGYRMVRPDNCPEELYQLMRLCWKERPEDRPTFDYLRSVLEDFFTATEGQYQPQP
In short: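 Readout pairs a europium cryptate-labelled anti-phosphotyrosine antibody with XL665-streptavidin, measured by time-resolved fluorescence. IC50 derived from percent inhibition against untreated controls.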

T1 sequence (P07947 whole entry): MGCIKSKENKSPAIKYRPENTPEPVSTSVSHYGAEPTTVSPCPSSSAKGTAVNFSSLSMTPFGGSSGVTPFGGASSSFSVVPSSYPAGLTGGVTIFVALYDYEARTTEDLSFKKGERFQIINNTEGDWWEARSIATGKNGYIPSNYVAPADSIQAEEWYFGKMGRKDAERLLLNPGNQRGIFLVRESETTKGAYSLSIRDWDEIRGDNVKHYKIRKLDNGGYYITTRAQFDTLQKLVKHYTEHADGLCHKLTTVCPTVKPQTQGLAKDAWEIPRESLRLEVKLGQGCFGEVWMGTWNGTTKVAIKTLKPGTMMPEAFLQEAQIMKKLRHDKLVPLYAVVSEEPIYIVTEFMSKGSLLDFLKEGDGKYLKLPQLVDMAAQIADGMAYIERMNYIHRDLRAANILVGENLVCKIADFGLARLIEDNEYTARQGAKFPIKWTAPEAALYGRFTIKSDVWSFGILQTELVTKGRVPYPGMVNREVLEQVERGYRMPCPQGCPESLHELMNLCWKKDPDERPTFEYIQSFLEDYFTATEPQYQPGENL

Row | Compound | IC50 [1] | IC50 [2] | IC50 [3]
1 | Cc1cc(-n2ncc(C(=O)c3cc4cc(OC5CCN(C6CS(=O)(=O)C6)CC5)c(Br)cc4[nH]3)c2N)ccc1Oc1ccccc1F [Example 5-1-227, [5-amino-1-[4-(2-fluorophenoxy)-3-methylphenyl]pyrazol-4-yl]-[6-bromo-5-[1-(1,1-dioxothietan-3-yl)piperidin-4-yl]oxy-1H-indol-2-yl]methanone] | 3.9 nM | 560 nM | 46 nM
2 | Cc1cc(-n2ncc(C(=O)c3cc4cc(OC5CCN(C6CCC6)CC5)c(F)cc4[nH]3)c2N)ccc1Oc1ccccc1F [Example 5-1-234, [5-amino-1-[4-(2-fluorophenoxy)-3-methylphenyl]pyrazol-4-yl]-[5-(1-cyclobutylpiperidin-4-yl)oxy-6-fluoro-1H-indol-2-yl]methanone] | 3.2 nM | 490 nM | 73 nM
3 | Cc1cc(-n2ncc(C(=O)c3cc4cc(OC5CCN(C6CCC6)CC5)c(Cl)cc4[nH]3)c2N)ccc1Oc1ccccc1F [Example 5-1-235, [5-amino-1-[4-(2-fluorophenoxy)-3-methylphenyl]pyrazol-4-yl]-[6-chloro-5-(1-cyclobutylpiperidin-4-yl)oxy-1H-indol-2-yl] methanone] | 2.9 nM | 430 nM | 85 nM
4 | Cc1cc(-n2ncc(C(=O)c3cc4cc(OC5CCN(C(C)C)CC5)c(-c5cccs5)cc4[nH]3)c2N)ccc1Oc1ccccc1F [Example 5-1-238, [5-amino-1-[4-(2-fluorophenoxy)-3-methylphenyl]pyrazol-4-yl]-[5-(1-propan-2-ylpiperidin-4-yl)oxy-6-thiophen-2-yl-1H-indol-2-yl]methanone] | 8.1 nM | 860 nM | 340 nM
5 | Cc1cc(Oc2c(F)cccc2F)ncc1-n1ncc(C(=O)c2cc3cc(OC4CCN(C(C)C)CC4)c(-c4cccs4)cc3[nH]2)c1N [Example 5-1-239, [5-amino-1-[6-(2,6-difluorophenoxy)-4-methylpyridin-3-yl]pyrazol-4-yl]-[5-(1-propan-2-ylpiperidin-4-yl)oxy-6-thiophen-2-yl-1H-indol-2-yl]methanone] | 5 nM | 40 nM | 16 nM
6 | Cc1cc(-n2ncc(C(=O)c3cc4cc(OC5CCN(C(C)C)CC5)c(-c5cncnc5)cc4[nH]3)c2N)ccc1Oc1ccccc1F [Example 5-1-240, [5-amino-1-[4-(2-fluorophenoxy)-3-methylphenyl]pyrazol-4-yl]-[5-(1-propan-2-ylpiperidin-4-yl)oxy-6-pyrimidin-5-yl-1H-indol-2-yl]methanone] | 2 nM | 75 nM | 19 nM
7 | Cc1cc(-n2ncc(C(=O)c3cc4cc(OC[C@H](O)CO)c(NS(C)(=O)=O)cc4[nH]3)c2N)ccc1Oc1ccccc1F [Example 5-1-242, (R)—N-(2-(5-amino-1-(4-(2-fluorophenoxy)-3-methylphenyl)-1H-pyrazole-4-carbonyl)-5-(2,3-dihydroxypropoxy)-1H-indol-6-yl)methanesulfonamide] | 1.9 nM | 500 nM | 160 nM
8 | Cc1cc(Oc2ccccc2F)ccc1-n1ncc(C(=O)c2cc3cc(OCC(F)F)c(N4C(=O)OC[C@H]4Cc4ccccc4)cc3[nH]2)c1N [Example 5-1-244, (4R)-3-[2-[5-amino-1-[4-(2-fluorophenoxy)-2-methylphenyl]pyrazole-4-carbonyl]-5-(2,2-difluoroethoxy)-1H-indol-6-yl]-4-benzyl-1,3-oxazolidin-2-one] | 9.9 nM | 18 nM | 40 nM
9 | Cc1cc(Oc2ccccc2F)ccc1-n1ncc(C(=O)c2cc3cc(OCC(F)F)c(N4C(=O)OC[C@@H]4Cc4ccccc4)cc3[nH]2)c1N [Example 5-1-245, (4S)-3-[2-[5-amino-1-[4-(2-fluorophenoxy)-2-methylphenyl]pyrazole-4-carbonyl]-5-(2,2-difluoroethoxy)-1H-indol-6-yl]-4-benzyl-1,3-oxazolidin-2-one] | 7.1 nM | 23 nM | 57 nM

Stronger by IC50 [1], values ahead:

Row | IC50 [1] | IC50 [2] | IC50 [3] | Compound
10 | 0.57 nM | 17 nM | 6.3 nM | Cc1cc(Oc2c(F)cccc2F)ncc1-n1ncc(C(=O)c2cc3cc(OC4CCN(C5CC5)CC4)c(Br)cc3[nH]2)c1N [Example 5-1-224, [5-amino-1-[6-(2,6-difluorophenoxy)-4-methylpyridin-3-yl]pyrazol-4-yl]-[6-bromo-5-(1-cyclopropylpiperidin-4-yl)oxy-1H-indol-2-yl] methanone]
11 | 0.46 nM | 89 nM | 12 nM | Cc1cc(-n2ncc(C(=O)c3cc4cc(OC5CCN(CCO)CC5)c(Br)cc4[nH]3)c2N)ccc1Oc1ccccc1F [Example 5-1-225, [5-amino-1-[4-(2-fluorophenoxy)-3-methylphenyl]pyrazol-4-yl]-[6-bromo-5-[1-(2-hydroxyethyl)piperidin-4-yl]oxy-1H-indol-2-yl]methanone]
12 | 0.34 nM | 3.3 nM | 2 nM | Cc1cc(Oc2c(F)cccc2F)ncc1-n1ncc(C(=O)c2cc3cc(OC4CCN(CCO)CC4)c(Br)cc3[nH]2)c1N [Example 5-1-226, [5-amino-1-[6-(2,6-difluorophenoxy)-4-methylpyridin-3-yl]pyrazol-4-yl]-[6-bromo-5-[1-(2-hydroxyethyl)piperidin-4-yl]oxy-1H-indol-2-yl]methanone]
13 | 1.3 nM | 13 nM | 3.1 nM | Cc1cc(Oc2c(F)cccc2F)ncc1-n1ncc(C(=O)c2cc3cc(OC4CCN(C5CS(=O)(=O)C5)CC4)c(Br)cc3[nH]2)c1N [Example 5-1-228, [5-amino-1-[6-(2,6-difluorophenoxy)-4-methylpyridin-3-yl]pyrazol-4-yl]-[6-bromo-5-[1-(1,1-dioxothietan-3-yl)piperidin-4-yl]oxy-1H-indol-2-yl]methanone]
14 | 0.77 nM | 6.1 nM | 2.4 nM | Cc1cc(Oc2c(F)cccc2F)ncc1-n1ncc(C(=O)c2cc3cc(OC4CCN(C(C)C)CC4)c(C4CCN(S(C)(=O)=O)CC4)cc3[nH]2)c1N [Example 5-1-229, (5-amino-1-(6-(2,6-difluorophenoxy)-4-methylpyridin-3-yl)-1H-pyrazol-4-yl)(5-((1-isopropylpiperidin-4-yl)oxy)-6-(1-(methylsulfonyl)piperidin-4-yl)-1H-indol-2-yl)methanone]
15 | 0.68 nM | 95 nM | 7 nM | Cc1cc(-n2ncc(C(=O)c3cc4cc(OC5CCN(C(C)C)CC5)c(C5CCN(S(C)(=O)=O)CC5)cc4[nH]3)c2N)ccc1Oc1ccccc1F [Example 5-1-230, [5-amino-1-[4-(2-fluorophenoxy)-3-methylphenyl]pyrazol-4-yl]-[6-(1-methylsulfonylpiperidin-4-yl)-5-(1-propan-2-ylpiperidin-4-yl)oxy-1H-indol-2-yl]methanone]
16 | 1.7 nM | 610 nM | 72 nM | Cc1cc(-n2ncc(C(=O)c3cc4cc(OC5CCN(C6CCC6)CC5)c(NS(C)(=O)=O)cc4[nH]3)c2N)ccc1Oc1ccccc1F [Example 5-1-231, N-[2-[5-amino-1-[4-(2-fluorophenoxy)-3-methylphenyl]pyrazole-4-carbonyl]-5-(1-cyclobutylpiperidin-4-yl)oxy-1H-indol-6-yl] methanesulfonamide]
17 | 1.4 nM | 230 nM | 30 nM | Cc1cc(-n2ncc(C(=O)c3cc4cc(OC5CCN(C6CCC6)CC5)c(N)cc4[nH]3)c2N)ccc1Oc1ccccc1F [Example 5-1-232, [6-amino-5-(1-cyclobutylpiperidin-4-yl)oxy-1H-indol-2-yl]-[5-amino-1-[4-(2-fluorophenoxy)-3-methylphenyl]pyrazol-4-yl]methanone]
18 | 0.92 nM | 340 nM | 21 nM | Cc1cc(-n2ncc(C(=O)c3cc4cc(OC5CCN(C6CCC6)CC5)c(N5C(=O)NC(C)(C)C5=O)cc4[nH]3)c2N)ccc1Oc1ccccc1F [Example 5-1-233, 3-(2-(5-amino-1-(4-(2-fluorophenoxy)-3-methylphenyl)-1H-pyrazole-4-carbonyl)-5-((1-cyclobutylpiperidin-4-yl)oxy)-1H-indol-6-yl)-5,5-dimethylimidazolidine-2,4-dione]
19 | 1.5 nM | 140 nM | 41 nM | Cc1cc(-n2ncc(C(=O)c3cc4cc(OC5CCN(C(C)C)CC5)c(-c5cnn(C)c5)cc4[nH]3)c2N)ccc1Oc1ccccc1F [Example 5-1-236, (5-amino-1-(4-(2-fluorophenoxy)-3-methylphenyl)-1H-pyrazol-4-yl)(5-((1-isopropylpiperidin-4-yl)oxy)-6-(1-methyl-1H-pyrazol-4-yl)-1H-indol-2-yl)methanone]
20 | 1.5 nM | 180 nM | 36 nM | Cc1cc(-n2ncc(C(=O)c3cc4cc(OC[C@H](O)CO)c(Br)cc4[nH]3)c2N)ccc1Oc1ccccc1F [Example 5-1-237, (R)-(5-amino-1-(4-(2-fluorophenoxy)-3-methylphenyl)-1H-pyrazol-4-yl)(6-bromo-5-(2,3-dihydroxypropoxy)-1H-indol-2-yl)methanone]
21 | 1.8 nM | 5.5 nM | 6.1 nM | Cc1cc(Oc2c(F)cccc2F)ncc1-n1ncc(C(=O)c2cc3cc(OC4CCN(C(C)C)CC4)c(-c4cncnc4)cc3[nH]2)c1N [Example 5-1-241, [5-amino-1-[6-(2,6-difluorophenoxy)-4-methylpyridin-3-yl]pyrazol-4-yl]-[5-(1-propan-2-ylpiperidin-4-yl)oxy-6-pyrimidin-5-yl-1H-indol-2-yl]methanone]
